Measurements reported in article PMC4105567, “Aurora Kinases as Druggable Targets in Pediatric Leukemia: Heterogeneity in Target Modulation Activities and Cytotoxicity by Diverse Novel Therapeutic Agents” (PLoS ONE, 2014).

What was measured:
Format in all cases: cell-based, human
C1 B-ALL cell line = test: Cytotoxicity assay, C1; conditions: four days in culture, Alamar blue assay or automated microscopy, ± SD, three experiments
How it was run: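 1×10^4 cells/well, Opti-MEM + 10% FBS; inhibitor 1×10^−6–10 µM final vs DMSO, triplicate; 4 d, 37°C, 5% CO2. Viability by Alamar blue (A570–620) or Celigo direct cell count; % survival = treated/control ×100.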

[1] = test system: Patient #4 infant leukemia primary cells; test: Cytotoxicity assay, primary sample Patient #4; conditions: four days in culture, Alamar blue assay or automated microscopy, one complete study
How it was run: (§1)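 Ficoll-isolated primary leukemic white cells (1×10^4 per well) in Opti-MEM exposed in triplicate to Aurora kinase inhibitors at 1×10^−6 to 10 µM or DMSO for 4 days. Survival measured by Alamar blue absorbance (570–620 nm) or bright-field direct cell counting, as percent of vehicle control.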

HL-60 RA APML cell line = test: Cytotoxicity assay, HL-60 RA; conditions: APML cell line HL-60 RA, four days in culture, Alamar blue assay or automated microscopy, ± SD, three experiments
How it was run: (§2)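 Cells (1×10^4/well) exposed to inhibitor, 1×10^−6 to 10 µM final, in triplicate for 4 days in Opti-MEM with 10% FBS at 37°C. Survival read by Alamar blue absorbance (570–620 nm) or bright-field direct cell counting, expressed as percent of vehicle (DMSO) control.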

TIB-202 AML cell line = test: Cytotoxicity assay, TIB-202; conditions: AML cell line TIB-202, four days in culture, Alamar blue assay or automated microscopy, ± SD, three experiments
How it was run: as §2

[2] = test system: normal bone marrow derived CD34+ cells; test: Hematopoietic colony forming cell assay; conditions: myeloid and erythroid colonies from CD34+ cells; for colony formation at 0.1–10 µM: 14 days
Protocol: The hematopoietic colony forming cell assay was conducted based on a protocol outlined by StemCell Technologies (Vancouver, British Columbia, Canada). To begin, CD34^+ cells were isolated from residual normal bone marrow transplant specimens obtained after informed consent. Next, several concentrations of Aurora A Inhibitor I, Hesperadin, ZM447439 and AT9283 (0.01, 0.1, 1, 10 µM) and DMSO (Sigma-Aldrich, Oakville, Ontario) (10 µM) were added to separate tubes of MethoCult (StemCell Technologies), a methylcellulose matrix containing recombinant human cytokines stem cell factor (rh SCF), granulocyte macrophage colony-stimulating factor (rh GM-CSF), interleukin-3 (rh IL-3), granulocyte colony stimulating factor (rh G-CSF) and erythropoietin (rh EPO). Following the addition of CD34^+ cells at a final concentration of 5×10^3 cells per dish, the tubes were vortexed and allowed to stand for 5 minutes at room temperature. Next, the MethoCult mixtures were be dispensed into 35 mm dishes (Corning Incorporated, Corning, New York) through blunt end needles (StemCell Technologies) and 5 ml syringes (BD Biosciences, Mississauga, Ontario) at a volume of 1.1 ml per dish. The medium was evenly distributed across the surface of each dish by gentle tilting and rotation. The dishes were then placed in a 150 mm tissue culture dish (BD Biosciences) containing additional 35 mm dishes with sterile water to maintain humidity. The tissue culture dish was then placed at 37°C in a humidified incubator containing 5% CO2 for 14 days. The number of myeloid and erythroid derived colonies in both the treated and control dishes were counted and compared.

[3] = test system: Patient #1 B-ALL primary leukemia cells; test: Cytotoxicity assay, primary sample Patient #1; conditions: four days in culture, Alamar blue assay or automated microscopy, one complete study
How it was run: as §1

[4] = test system: Patient #3 AML/CML primary leukemia cells; test: Cytotoxicity assay, primary sample Patient #3; conditions: four days in culture, Alamar blue assay or automated microscopy, one complete study
How it was run: as §1

Q: Which results are given for `CCS(=O)(=O)Nc1ccc2c(c1)/C(=C(/Nc1ccc(CN3CCCCC3)cc1)c1ccccc1)C(=O)N2` [Hesperadin]?
A: IC50 (C1 B-ALL cell line; Homo sapiens, 96 h): 0.06 nM; IC50 ([1]; Homo sapiens, 96 h): 2000 nM; IC50 (HL-60 RA APML cell line; Homo sapiens, 96 h): 0.05 nM; IC50 (TIB-202 AML cell line; Homo sapiens, 96 h): 0.003 nM; colony formation at 0.1–10 µM [2]: completely inhibited the formation of both types of colonies; IC50 ([3]; Homo sapiens, 96 h): 0.04 nM; IC50 ([4]; Homo sapiens, 96 h): 3000 nM

Q: Which results are given for `CCN1CCN(C(=O)Cc2ccc(Nc3ncc(F)c(Nc4ccc(C(=O)Nc5ccccc5Cl)cc4)n3)cc2)CC1` [Aurora A Inhibitor I]?
A: IC50 (C1 B-ALL cell line): 900 ± 200 nM; IC50 [1]: 8000 nM; IC50 (HL-60 RA APML cell line): 1000 ± 600 nM; IC50 (TIB-202 AML cell line): 5 ± 2 nM; concentration up to which colony formation was not affected ([2]; 14 days in methylcellulose culture, tested 0.01, 0.1, 1, 10 µM): ≤ 0.1 µM; IC50 [3]: 800 nM; IC50 [4]: 5000 nM

Q: With `O=C(Nc1c[nH]nc1-c1nc2ccc(CN3CCOCC3)cc2[nH]1)NC1CC1` [AT9283] as the compound, how does the IC50 (C1 B-ALL cell line; Homo sapiens, 96 h) read?
A: 0.6 nM

Q: What about the IC50 ([1]; Homo sapiens, 96 h) of the same compound?
A: 5000 nM

Q: What about the IC50 (HL-60 RA APML cell line; Homo sapiens, 96 h) of the same compound?
A: 3 ± 2 nM

Q: And the IC50 (TIB-202 AML cell line; Homo sapiens, 96 h)?
A: 800 ± 200 nM

Q: What about the “colony formation at 0.1–10 µM” value [2] of the same compound?
A: completely inhibited the formation of both types of colonies

Q: And the IC50 ([3]; Homo sapiens, 96 h)?
A: 3 nM

Q: What about the IC50 ([4]; Homo sapiens, 96 h) of the same compound?
A: 1000 nM
